From PubChem BioAssay AID328 (DTP/NCI, 2004)
Where “and” joins values, the source holds several entries; their conditions need not be identical. Identical values can stand only once. Toxic doses and inconclusive results are not listed. How the source made its calls: active means survival T/C of 150% or more; inactive means T/C below 125% in these data.

System: BDF1 mice, P388 leukemia ip, median survival T/C
Test: NCI In Vivo Anticancer Drug Screen. Data for tumor model P388 Leukemia (intraperitoneal) in B6D2F1 (BDF1) mice
Conditions: endpoint: median survival time, higher = longer survival
Outline: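 Mice carrying the transplantable tumour receive compound or vehicle. Survival is followed in each arm, and the treated measure is divided by the vehicle measure.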

[1] = dose: 12.5 mg/kg/injection, schedule: Q01DX009 (ip), vehicle: Klucel (hydroxypropylcellulose) (HPC)
[2] = dose: 25.0 mg/kg/injection, schedule: Q01DX009 (ip), vehicle: Klucel (hydroxypropylcellulose) (HPC)
[3] = dose: 50.0 mg/kg/injection, schedule: Q01DX009 (ip), vehicle: Klucel (hydroxypropylcellulose) (HPC)
[4] = dose: 100.0 mg/kg/injection, schedule: Q04DX003 (ip), vehicle: Klucel (hydroxypropylcellulose) (HPC)
[5] = dose: 50.0 mg/kg/injection, schedule: Q01DX009 (ip), vehicle: saline with Tween-80
[6] = dose: 100.0 mg/kg/injection, schedule: Q01DX009 (ip), vehicle: saline with Tween-80
[7] = dose: 200.0 mg/kg/injection, schedule: Q01DX009 (ip), vehicle: saline with Tween-80
[8] = dose: 100.0 mg/kg/injection, schedule: Q01DX009 (ip), vehicle: Klucel (hydroxypropylcellulose) (HPC)

Measured: T/C

O=C(O)c1cc(I)cc(I)c1
active: dose: 400.0 mg/kg/injection, schedule: Q04DX003 (ip), vehicle: saline 160 % of control
inactive: dose: 100.0 mg/kg/injection, schedule: Q04DX003 (ip), vehicle: saline 100 % of control | dose: 200.0 mg/kg/injection, schedule: Q04DX003 (ip), vehicle: saline 100 % of control

Nc1cc2c(c(Cl)c1Br)-c1ccccc1C2=O
inactive: [1] 90 % of control | [2] 86 % of control | dose: 100.0 mg/kg/injection, schedule: Q01DX001 (ip), vehicle: other 86 % of control | dose: 200.0 mg/kg/injection, schedule: Q01DX001 (ip), vehicle: other 104 % of control | dose: 400.0 mg/kg/injection, schedule: Q01DX001 (ip), vehicle: other 104 % of control

C[C@]1(O)CC[C@H]2[C@@H]3CCC4=CC(=O)CC[C@]4(C)[C@@]3(F)C(=O)C[C@@]21C
inactive: [1] 104 % of control | [2] 109 % of control | [3] 90 % of control | [4] 100 % of control | dose: 200.0 mg/kg/injection, schedule: Q04DX003 (ip), vehicle: Klucel (hydroxypropylcellulose) (HPC) 100 % of control | dose: 400.0 mg/kg/injection, schedule: Q04DX003 (ip), vehicle: Klucel (hydroxypropylcellulose) (HPC) 104 % of control

Cc1nccn1C[c-]1[c-][c-][c-][c-]1.[Fe].[c-]1[c-][c-][cH-][c-]1
inactive: dose: 6.25 mg/kg/injection, schedule: Q01DX009 (ip), vehicle: saline 108 % of control | dose: 12.5 mg/kg/injection, schedule: Q01DX009 (ip), vehicle: saline 99 % of control | dose: 25.0 mg/kg/injection, schedule: Q01DX009 (ip), vehicle: saline 100 % of control

C=C1C(=O)[C@]23C[C@H]1CC[C@H]2[C@@]12CO[C@@H](O)[C@@H]1C(C)(C)[C@@H](O)C[C@@H]2OC3=O
inactive: dose: 3.13 mg/kg/injection, schedule: Q01DX009 (ip), vehicle: saline with Tween-80 112 % of control | dose: 6.25 mg/kg/injection, schedule: Q01DX009 (ip), vehicle: saline with Tween-80 118 % of control | dose: 25.0 mg/kg/injection, schedule: Q01DX009 (ip), vehicle: saline with Tween-80 117 % of control | [5] 119 % of control and 121 % of control | [6] 112 % of control | [7] 120 % of control

O=CC1(C(O)C2SCCCS2)SCCCS1 (stereo unspecified)
inactive: dose: 12.5 mg/kg/injection, schedule: Q01DX001 (ip), vehicle: other 95 % of control | dose: 25.0 mg/kg/injection, schedule: Q01DX001 (ip), vehicle: other 104 % of control | dose: 50.0 mg/kg/injection, schedule: Q01DX001 (ip), vehicle: other 109 % of control

CCCCCCCCCCCC(=O)CCC
inactive: dose: 100.0 mg/kg/injection, schedule: Q04DX003 (ip), vehicle: other 100 % of control | dose: 200.0 mg/kg/injection, schedule: Q04DX003 (ip), vehicle: other 91 % of control and 100 % of control | dose: 400.0 mg/kg/injection, schedule: Q04DX003 (ip), vehicle: other 91 % of control and 100 % of control

O=C(O)c1cc2c3c(c1)CCCN3CCC2
inactive: dose: 100.0 mg/kg/injection, schedule: Q04DX003 (ip), vehicle: saline with Tween-80 90 % of control | dose: 200.0 mg/kg/injection, schedule: Q04DX003 (ip), vehicle: saline with Tween-80 100 % of control | dose: 400.0 mg/kg/injection, schedule: Q04DX003 (ip), vehicle: saline with Tween-80 90 % of control

COc1ccc(CC2c3cc(OC)c(OC)cc3CC[N+]2(C)C)cc1OC (stereo unspecified)
inactive: dose: 12.5 mg/kg/injection, schedule: Q01DX009 (ip), vehicle: saline sonified 108 % of control | dose: 25.0 mg/kg/injection, schedule: Q01DX009 (ip), vehicle: saline sonified 100 % of control | dose: 50.0 mg/kg/injection, schedule: Q01DX009 (ip), vehicle: saline sonified 91 % of control

CC(C)=NOC(=O)Nc1ccc(Cl)cc1
inactive: [2] 111 % of control | [3] 118 % of control | [8] 124 % of control

Cc1ccc(S(=O)(=O)/C=C/c2ccccc2)cc1
inactive: [5] 100 % of control | [6] 100 % of control | [7] 103 % of control

CCOC(=O)CC(C)(C)NCc1ccccc1
inactive: [2] 90 % of control | dose: 25.0 mg/kg/injection, schedule: Q04DX003 (ip), vehicle: Klucel (hydroxypropylcellulose) (HPC) 108 % of control | dose: 50.0 mg/kg/injection, schedule: Q04DX003 (ip), vehicle: Klucel (hydroxypropylcellulose) (HPC) 95 % of control | [8] 95 % of control | [4] 116 % of control
